From patent US20190202820A1, “PROCESS FOR PRODUCING FLUORINATED COMPOUNDS USING ALCOHOL SOLVENT HAVING CARBONYL GROUP” (FUTURECHEM CO., LTD., priority 2018, published 2019)
Entries after “also recorded” stand apart in the source; their conditions may differ. Where two headings read alike, the source gives them in different places.

Experiment: Comparison of solubility of the precursor compound according to the kind of reaction solvent (observation with the naked eye)
Format: physicochemical
Details: for State of the solution when the temperature dropped to room temperature: t-amyl alcohol, then dropped to room temperature
Procedure: The solubility of FP-CIT, FDG, FLT, FMISO, and FC119S at room temperature and at 60° C. according to the different solvents of methyl 2-hydroxyisobutyrate solvent of the present invention and t-amyl alcohol solvent of the prior art (KR 10-0789847) was investigated.

[1] = reaction solvent methyl 2-hydroxyisobutyrate (present invention), precursor amount 4-20 mg, naked eye
[2] = reaction solvent methyl 2-hydroxyisobutyrate (present invention), room temperature, precursor amount 4-20 mg, naked eye
[3] = reaction solvent t-amyl alcohol (KR 10-0789847), precursor amount 4-20 mg, naked eye
[4] = reaction solvent t-amyl alcohol (KR 10-0789847), room temperature, precursor amount 4-20 mg, naked eye

| Solubility Room temperature | State of the solution after cooling to room temperature | SMILES | State of the solution after cooling to room temperature (methyl-2-hydroxyisobutyrate, dissolved at 60° C., then cooled to room temperature) | Solubility 60° C. [1] | Solubility Room temperature [2] | Solubility 60° C. [3] | Solubility Room temperature [4] | State of the solution when the temperature dropped to room temperature (dissolved at 60° C.) | Solubility Room temperature (reaction solvent methyl 2-hydroxyisobutyrate (present invention), room temperature, precursor amount 4-20 mg, naked eye, p-toluenesulfonate) |
| --- | --- | --- | --- | --- | --- | --- | --- | --- | --- |
|  |  | CN(C(=O)OC(C)(C)C)c1ccc(-c2nc3ccc(OC[C@@H](COS(=O)(=O)c4ccc([N+](=O)[O-])cc4)OC4CCCCO4)cc3s2)cn1 (some centres unmarked) [FC119S] | remained as a solution | dissolved | undissolved | not dissolved; also recorded: undissolved | undissolved |  |  |
|  |  | CC(=O)OC[C@H]1O[C@@H](OC(C)=O)[C@@H](OS(=O)(=O)C(F)(F)F)[C@@H](OC(C)=O)[C@@H]1OC(C)=O [FDG, 1,3,4,6-tetra-O-acetyl-2-O-trifluoro-methanesulfonyl-beta-D-mannopyranose] |  | dissolved | dissolved | dissolved | undissolved | precipitated again as solids |  |
| undissolved | remained as a solution | Cc1cn([C@H]2C[C@H](OS(=O)(=O)c3ccc([N+](=O)[O-])cc3)[C@@H](COC(c3ccccc3)(c3ccccc3)c3ccccc3)O2)c(=O)n(C(=O)OC(C)(C)C)c1=O [FLT, 3-N-Boc-5′-O-trityl-3′-O-nosyl-thymidine] |  |  |  |  |  |  |  |
|  |  | COC(=O)[C@H]1[C@@H](c2ccc(I)cc2)C[C@@H]2CC[C@H]1[N+]21CCC1.Cc1ccc(S(=O)(=O)[O-])cc1 [FP-CIT, (1′R, 2′S, 3′S, 5′S)-3′-(4-iodophenyl)-2′-(methoxycarbonyl)spiro[azetidine-1,8′-bicyclo[3,2,1]octan]-1-ium p-toluenesulfonate] |  | dissolved |  | dissolved | undissolved | precipitated again as solids | completely dissolved |
